Legend:
Assay type in all cases: physicochemical
[1] = target: T1, HSA (Homo sapiens, UniProt P02768); assay: Differential scanning calorimetry (DSC) of HSA solutions: thermal stabilization effect; conditions: 100-μM HSA, 500-μM agent
Protocol: Each of various medical agents was added to 100-μM HSA ( 1/15 mM phosphate buffer, pH 7.4) and then the following medical agents under test were prepared:
The stabilization effect was evaluated in terms of a thermodynamic viewpoint by calculating a thermal transition temperature (Tm) and a change ΔHcal in enthalpy of transition from a differential scanning calorimetry (DSC) measurement on those medical agents under test (1) to (4). If the thermal transition temperature (Tm) increases, from the thermodynamic viewpoint, it means an increase in stability of the medical agents under test. In addition, if the change ΔHcal in enthalpy of transition increases, it means an increase in stability of the medical agents transition under test.
Those values were analyzed by a DSC thermogram of the HSA solution. Differential scanning calorimetry (DSC method)
For the DSC, measurement was made using the MC-2 differential scanning calorimeter manufactured by MicroCal Co., Ltd. The measuring conditions are shown below.
Albumin content: 100 μM Solvent: 1/15 M phosphate buffer (pH 7.4)
Reversibility of thermal denaturation was confirmed by cooling the albumin solution after first measurement and then heating the albumin solution again. […]

[2] = target: T1, HSA; assay: Carbonyl content in HSA after oxidation with AAPH; conditions: oxidation with excess AAPH; compared with medical agent under test without addition
Protocol: An excess amount of an oxidizing agent, 2,2′-azobis-(2-amidinopropane) dihydrochloride (AAPH) was added to HSA to oxidize the HSA. After the oxidation for a predetermined time, the carbonyl content in HSA was determined.

[3] = target: T1, HSA; assay: Aggregate-inhibition effect under heat with medium-chain fatty acids other than sodium caprylate (electrophoresis); conditions: 5-fold concentration (120 μM) of fatty acid added to 24-μM HSA phosphate buffer (67 mM, pH 7.4)
Protocol: The measurement samples used were such that 5-fold concentrations (120 μM) of the respective fatty acids were each added to a 24-μM HSA phosphate buffer (67 mM, pH 7.4).

T1 sequence (P02768 25-609): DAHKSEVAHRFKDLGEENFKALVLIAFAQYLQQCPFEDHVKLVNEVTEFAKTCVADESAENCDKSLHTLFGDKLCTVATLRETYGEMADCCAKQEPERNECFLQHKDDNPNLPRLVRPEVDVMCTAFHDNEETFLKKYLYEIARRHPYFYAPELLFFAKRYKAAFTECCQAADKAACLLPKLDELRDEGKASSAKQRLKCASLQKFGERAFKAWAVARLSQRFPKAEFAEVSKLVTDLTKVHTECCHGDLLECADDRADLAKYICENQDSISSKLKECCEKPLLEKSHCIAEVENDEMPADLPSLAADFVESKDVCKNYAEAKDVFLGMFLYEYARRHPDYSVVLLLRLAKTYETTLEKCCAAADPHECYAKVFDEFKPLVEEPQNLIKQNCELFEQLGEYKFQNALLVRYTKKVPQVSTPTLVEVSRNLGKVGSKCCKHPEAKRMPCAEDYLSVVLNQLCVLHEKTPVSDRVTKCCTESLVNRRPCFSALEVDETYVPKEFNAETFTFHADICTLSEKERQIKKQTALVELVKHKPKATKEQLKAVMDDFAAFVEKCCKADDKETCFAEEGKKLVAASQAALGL

Row | SMILES | change in Tm compared with HSA solution without added agent (in words) [1] | change in ΔHcal compared with HSA solution without added agent (in words) [1] | carbonyl content in HSA (degree of oxidation) [2] | aggregate-inhibition effect under heat [3]
1 | CSCC[C@H](NC(C)=O)C(=O)O [N-acetyl methionine] | slight increase in Tm | increase in change ΔHcal in enthalpy transition | significant decrease in carbonyl content | –
2 | CCCCCC(=O)O [caproic acid] | – | – | – | slightly observed
3 | CCCCCCC(=O)O [enanthic acid] | – | – | – | slightly observed

Source: US7351800B2, “Stabilized albumin preparations” (Nipro Corporation, priority 2002, dated 2008)
